12 molecules from ChEMBL document CHEMBL1201862, “PubChem BioAssay data set” (2004) can be followed below.

Each structure is given as a SMILES string.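 Dose response: 5 concentrations. Exposure: 48 h. Format: 96-well plates. Endpoint: linear interpolation; highest concentration if not reached. Abbreviation: GI50, concentration required for 50% inhibition of growth.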 Active and inactive are the calls of the source. Cut-off read from the data, not from the text of the source: active = GI50 up to about 1.1 µM and inactive = higher.

Assay in all cases: NCI tumour cell line growth inhibition, 48 h
For assay [1], the system named is MCF7.
In assay [2] the test system is SK-MEL-2.
Assay [3] has as its system UACC-257.
Assay [4] has as its system NCI-H522.
The subject of assay [5] is SNB-75.
Assay [6] concerns LOX IMVI.
The subject of assay [7] is RPMI-8226.
Assay [8] deals with HL-60.
In assay [9] the test system is PC-3.
In assay [10] the test system is COLO 205.
The subject of assay [11] is HOP-92.
The subject of assay [12] is HCT-116.
The test system of assay [13] is T47D.
Assay [14] concerns EKVX.
Assay [15] relates to MDA-MB-435.
Assay [16] relates to NCI/ADR-RES.
Assay [17] has as its system NCI-H460.
Assay [18] concerns HCC 2998.
Assay [19] has as its system NCI-H23.

`COC(=O)/C=C(\CC(=O)OC)n1nnnc1[C@@H]1C[C@H](COC(c2ccccc2)(c2ccccc2)c2ccccc2)[C@H]2OC(C)(C)O[C@H]21`: the GI50 was 31.9 µM (inactive) in [1]; > 100 µM (inactive) in [2]; > 100 µM (inactive) in assay [3]; 51.6 µM (inactive) in assay [4]; 37.2 µM (inactive) in assay [5]; > 100 µM (inactive) in assay [6]. In addition, the GI50 is 11.1 µM (inactive) in [7]; > 100 µM (inactive) in assay [8]; > 100 µM (inactive) in [9]; 39.3 µM (inactive) in assay [10]; > 100 µM (inactive) in assay [11]; 89.1 µM (inactive) in assay [12]. Further, the GI50 in assay [13] is 20.8 µM (inactive); in assay [14], 54.2 µM (inactive); in assay [15], > 100 µM (inactive).
Consider `N#Cc1c(-c2ccc(Cl)cc2)cc(-c2ccc(Nc3ccnc4cc(C(F)(F)F)ccc34)cc2)nc1N`, for which the GI50 was > 100 µM (inactive) in assay [16]; 32.8 µM (inactive) in assay [17]; 64.3 µM (inactive) in assay [18]; 28.8 µM (inactive) in assay [1]; 27.8 µM (inactive) in [2]; 57.5 µM (inactive) in assay [19]. Further, the GI50 in assay [3] is > 100 µM (inactive); in assay [4], 31.4 µM (inactive); in assay [5], 23 µM (inactive); in assay [6] it was 3.72 µM (inactive); in [7] it was 23.4 µM (inactive); in assay [9], 32.9 µM (inactive). The GI50 is 29.4 µM (inactive) in [10]; 10.6 µM (inactive) in assay [12]; 18.5 µM (inactive) in assay [13]; 67 µM (inactive) in assay [14]; 19.5 µM (inactive) in [15].
Regarding `CCOC(=O)c1cc(C2(O)CCN(Cc3ccccc3)C2=O)c(-c2cc(C)no2)[nH]1` (stereo not drawn), the GI50 in assay [16] was 38.5 µM (inactive); in assay [17], 32.4 µM (inactive); in assay [18], 92.9 µM (inactive); in [1], 47.4 µM (inactive); in [2] it was 48.8 µM (inactive); in assay [19], 73.3 µM (inactive). In addition, the GI50 was 75.9 µM (inactive) in assay [3]; 15.4 µM (inactive) in assay [4]; 26.6 µM (inactive) in [5]; 29.5 µM (inactive) in assay [6]; 26.4 µM (inactive) in assay [7]; 15.3 µM (inactive) in [8]. In addition, the GI50 in assay [9] was 42.4 µM (inactive); in assay [10], 56.8 µM (inactive); in assay [12] it was 37.9 µM (inactive); in assay [13] it was 17.9 µM (inactive); in assay [14] it was 41.4 µM (inactive); in assay [15], 36.7 µM (inactive).
With `CN(C)c1ccc(/C=C2\N=C(c3ccc([N+](=O)[O-])cc3)OC2=O)cc1`, the GI50 is 71 µM (inactive) in assay [17]; 27.4 µM (inactive) in assay [18]; 49.9 µM (inactive) in assay [1]; > 100 µM (inactive) in assay [2]; 45.1 µM (inactive) in assay [19]; 57.3 µM (inactive) in assay [3]. Further, the GI50 is 33.3 µM (inactive) in assay [4]; > 100 µM (inactive) in [5]; 23.1 µM (inactive) in assay [6]; 41.7 µM (inactive) in assay [7]; 41 µM (inactive) in assay [8]; 56.2 µM (inactive) in [9]. In addition, the GI50 is 99.1 µM (inactive) in [10]; 27.1 µM (inactive) in assay [11]; 34.8 µM (inactive) in assay [12]; 48.4 µM (inactive) in assay [13]; > 100 µM (inactive) in assay [14]; 81.8 µM (inactive) in assay [15].
For the molecule `S=C1CSc2c(ccc3ccccc23)N1`, the GI50 in assay [16], in [17], in [1], in assay [19], in [3] and in assay [4] was > 100 µM (inactive) in each case. Also, the GI50 in assay [5], in assay [6], in assay [7], in assay [8], in [9] and in assay [10] was > 100 µM (inactive) throughout. Also, the GI50 in assay [12] is > 100 µM (inactive); in assay [13] it was > 100 µM (inactive); in assay [14], 21.7 µM (inactive); in assay [15] it was > 100 µM (inactive).
As for `S=C(NCCc1ccccn1)N/N=C/c1ccccn1`, the GI50 in assay [16] was 0.0147 µM (active); in assay [17], 0.501 µM (active); in assay [18] it was 3.06 µM (inactive); in assay [1], < 0.01 µM (active); in assay [2], 0.0457 µM (active); in [19] it was < 0.01 µM (active). In addition, the GI50 in [3] was < 0.0113 µM (active); in assay [4], < 0.01 µM (active); in [5] it was 9.35 µM (inactive); in [6], < 0.0373 µM (active); in assay [7], < 0.01 µM (active); in assay [8], < 0.01 µM (active). The GI50 in [9] is 0.0115 µM (active); in assay [10], < 0.01 µM (active); in assay [12], < 0.01 µM (active); in [13], < 0.01 µM (active); in [14] it was 0.0243 µM (active); in assay [15], 4.09 µM (inactive).
For the molecule `NNC(=O)c1ccccc1NC(=O)/C(=C/c1ccccc1O)NC(=O)c1ccccc1`, the GI50 in assay [16] is 15.6 µM (inactive); in assay [17], 22.8 µM (inactive); in [18] it was 10.9 µM (inactive); in assay [1], 5.07 µM (inactive); in assay [19], 38.4 µM (inactive); in [3], > 100 µM (inactive). Moreover, the GI50 in [4] is 13.4 µM (inactive); in assay [5], 11.6 µM (inactive); in assay [6], 47.1 µM (inactive); in assay [7], > 100 µM (inactive); in assay [8], > 100 µM (inactive); in assay [10], > 100 µM (inactive). Besides, the GI50 was 38.9 µM (inactive) in [11]; 88.3 µM (inactive) in assay [12]; 11.5 µM (inactive) in assay [13]; 33.6 µM (inactive) in assay [14]; 57.7 µM (inactive) in assay [15].
On to `C=CCC1(C#N)C(=S)NC2=C(C(=O)CC(C)(C)C2)C1c1ccccc1` (stereo not drawn), for which the GI50 in assay [16] was 56.9 µM (inactive); in [2] it was 46.8 µM (inactive); in assay [19], 39.9 µM (inactive); in assay [5], 27 µM (inactive); in assay [6], 68.9 µM (inactive); in assay [7], 52.5 µM (inactive). Further, the GI50 in [8] was > 100 µM (inactive); in assay [9], 32.2 µM (inactive); in assay [10] it was > 100 µM (inactive); in assay [11], 35.1 µM (inactive); in assay [12], 59.4 µM (inactive); in assay [13] it was 27.3 µM (inactive). Moreover, the GI50 in assay [14] was 19.2 µM (inactive); in assay [15] it was 33 µM (inactive).
In the case of `Nc1cc2ncnc(Nc3cccc(Br)c3)c2cn1`, the GI50 in assay [16] is 45.6 µM (inactive); in assay [17], 30 µM (inactive); in assay [2], 19.8 µM (inactive); in [19], 57 µM (inactive); in assay [3], 39.9 µM (inactive); in assay [5], 33.7 µM (inactive). Also, the GI50 was 38 µM (inactive) in [6]; 52.5 µM (inactive) in assay [7]; > 100 µM (inactive) in [8]; 28.5 µM (inactive) in assay [9]; 50.4 µM (inactive) in assay [10]; 26.4 µM (inactive) in [11]. Besides, the GI50 is 49.5 µM (inactive) in assay [12], 23.9 µM (inactive) in assay [13] and 54.3 µM (inactive) in assay [15].
`CCOC(=O)c1c(NC(=O)c2ccc(OC)cc2)sc2c1CCCC2`: the GI50 in assay [16], in assay [17], in [1], in [2], in assay [19] and in assay [3] was > 100 µM (inactive) throughout. For the same molecule, the GI50 is > 100 µM (inactive) in assay [7]; 2.25 µM (inactive) in [8]; > 100 µM (inactive) in assay [9]; > 100 µM (inactive) in assay [10]; > 100 µM (inactive) in assay [12]; > 100 µM (inactive) in [13]. The GI50 in [14] and in assay [15] was > 100 µM (inactive) in each case.
Turning to `COc1cc2nc(-c3ccccc3F)nc(O)c2cc1OC`, the GI50 is > 100 µM (inactive) in assay [16]; 71.8 µM (inactive) in assay [17]; > 100 µM (inactive) in assay [18]; 86.9 µM (inactive) in [1]; > 100 µM (inactive) in [2]; > 100 µM (inactive) in [19]. The GI50 is > 100 µM (inactive) in assay [3]; 89.5 µM (inactive) in assay [4]; > 100 µM (inactive) in assay [5]; > 100 µM (inactive) in assay [6]; > 100 µM (inactive) in assay [7]; > 100 µM (inactive) in assay [8]. Further, the GI50 in assay [9], in assay [10], in assay [11], in [12], in [13] and in assay [14] was > 100 µM (inactive) in each case.
Take `Cn1cnc2c(OCC3CCCCC3)nc(N)nc21`: the GI50 was > 100 µM (inactive) in assay [16]; > 100 µM (inactive) in assay [17]; > 100 µM (inactive) in assay [18]; 11.7 µM (inactive) in assay [1]; > 100 µM (inactive) in assay [2]; > 100 µM (inactive) in [19]. Further, the GI50 was > 100 µM (inactive) in [3]; > 100 µM (inactive) in assay [4]; 36.3 µM (inactive) in [5]; 66.1 µM (inactive) in assay [6]; > 100 µM (inactive) in assay [7]; > 100 µM (inactive) in assay [8]. Moreover, the GI50 in assay [9] is > 100 µM (inactive); in assay [10], > 100 µM (inactive); in assay [11], 32.4 µM (inactive); in assay [12], > 100 µM (inactive); in assay [14], > 100 µM (inactive); in [15], > 100 µM (inactive).
